Article PMC3900635, “Transport Rankings of Non-Steroidal Antiinflammatory Drugs across Blood-Brain Barrier In Vitro Models” (PLoS ONE, 2014)
Like-named read-outs stand apart in the source and are kept apart here.

Columns and labels:
[1] = Single transport studies across ECV304 layers (Transwell)
Protocol: (§1) All solutions were prepared under sterile conditions.
(§2) For quantification of NSAIDs a reverse-phase high-performance liquid chromatography (RP-HPLC) system from Shimadzu was used (DGV-20A5/prominence Degasser, SIL – 20AC/prominence Auto Sampler, CTO – 20AC/prominence Column Oven, SPD – 20A/prominence UV detector, CMB – 20A/prominence Communications Bus Module). […] Before analysis proteins of samples were precipitated with ice-cold methanol or acetonitril depending on mobile phase composition and supernatants were analyzed. Data aquisition and analysis were performed by LC-Solution software (Shimadzu Handelsgesellschaft, Austria). Substances were analysed in triplicates with a injection volume of 20–50 µL.Varying mixtures of methanol, acetonitrile, and 10 mM potassium buffer (pH = 2.5 for all analysis except pH = 3.5 for single studies with celecoxib) were used as mobile phase.
(§3) Permeability coefficients were calculated following the clearance principle as described recently. Results of blank value experiments were included into permeability coefficient calculation by using reciprocal correlation shown in equation (1):
(§4) 1/PEcell = 1/PEall – 1/PEblank (1)
(§5) PEblank refers to the permeability coefficient without cell layer, PEall represents the permeability coefficient through membrane insert and the cell layer and PEcell is the permeability coefficient only through the cell layer.

ECV304 cell layers = experiment: in vitro
Protocol: as §1, §2, §3, §4, §5

PBMEC/C1-2 cell layers = experiment: in vitro; conditions: for PEcell: PBMEC/C1-2 group study
Protocol: as §1, §2, §3, §4, §5

[2] = Group transport studies across ECV304 layers (Transwell); conditions: human, PEcell
Protocol: as §1, §2, §3, §4, §5

[3] = format: in vitro ADME, calf; conditions: group composition, ultrafiltration
Protocol: […]. After incubation at 37°C for 40 minutes, 2 mL of the solutions were centrifuged across prewashed (2 mL PBS, 10 minutes, 2500 g) Centrisart ultra-filters (molecular cut-off 10 kDa, Sartorius) at 2500 g for 5 (PBS and 0% serum), 10 (7.5% serum) or 15 (50% and 100% serum) minutes to obtain at least one third to one half of the totally applied volume. […]. Carboxyfluorescein was measured by the microplate reader method as described above. Unbound substance concentrations in the filtrates were related to stock solutions to determine the serum binding (100%-unbound fraction [%]). Blank experiments (PBS, 0% serum experiments) were included in the calculation of serum binding values to consider systematic procedure errors and binding of the substances to the ultrafiltration membrane. Experiments under each condition were repeated for three times.

[4] = test system: primary rat brain microvascular endothelial cells (RBMEC); experiment: in vitro
Protocol: as §1, §2, §3, §4, §5

[5] = pig, PEcell, PBMEC/C1-2 group study, all substances (6 NSAIDs, diazepam, CF), C6 medium
[6] = pig, PEcell, PBMEC/C1-2 group study, without Meloxicam
[7] = pig, with verapamil (concentration not stated), PEcell, PBMEC/C1-2 group study, with Verapamil, without Meloxicam
[8] = ECV304 group study, all substances (6 NSAIDs, diazepam, CF), C6 medium
[9] = ECV304 group study, without Meloxicam
[10] = with probenecid (concentration not stated), ECV304 group study, with Probenecid, without Meloxicam
[11] = with verapamil (concentration not stated), ECV304 group study, with Verapamil, without Meloxicam

For Cc1ccc(-c2cc(C(F)(F)F)nn2-c2ccc(S(N)(=O)=O)cc2)cc1 [Celecoxib, celecoxib], which Papp at 100 µM ([1]; human) is on record?
Its Papp at 100 µM is 76.2 nm/s.

What about the Papp at 100 µM ([1]; pig) of the same molecule?
The Papp at 100 µM was 224 nm/s.

And the Papp at 100 µM [1, 5]?
The Papp at 100 µM was 221 nm/s.

What about the Papp at 100 µM [1, 6] of the same molecule?
The Papp at 100 µM was 258 nm/s.

What about the Papp at 100 µM ([1]; pig, with probenecid (concentration not stated), PEcell, PBMEC/C1-2 group study, with Probenecid, without Meloxicam) of the same molecule?
The Papp at 100 µM was 278 nm/s.

What about the Papp at 100 µM [1, 7] of the same molecule?
Its Papp at 100 µM is 351 nm/s.

And the PSblank (ECV304 cell layers; 100 µM)?
The PSblank was 5.10 ± 0.06 µL/min.

And the PEall (ECV304 cell layers; ECV304, Celecoxib study, insert and cell layer)?
The PEall was 3.31±0.41 µm/min.

What about the PSall (ECV304 cell layers; human, 100 µM) of the same molecule?
The PSall was 1.39 ± 0.17 µL/min.

And the PScell (ECV304 cell layers; human, 100 µM)?
The PScell was 1.91 ± 0.32 µL/min.

And the PSblank (PBMEC/C1-2 cell layers; 100 µM)?
Its PSblank is 6.07 ± 0.45 µL/min.

What about the PEall (PBMEC/C1-2 cell layers; PBMEC/C1-2, Celecoxib study, insert and cell layer) of the same molecule?
Its PEall is 6.95±0.45 µm/min.

What about the PSall (PBMEC/C1-2 cell layers; pig, 100 µM) of the same molecule?
The PSall was 2.92 ± 0.19 µL/min.

What about the PScell (PBMEC/C1-2 cell layers; pig, 100 µM) of the same molecule?
Its PScell is 5.62 ± 0.71 µL/min.

What about the Papp at 100 µM [2, 8] of the same molecule?
Its Papp at 100 µM is 110 nm/s.

What about the Papp at 100 µM [2, 9] of the same molecule?
Its Papp at 100 µM is 233 nm/s.

And the Papp at 100 µM [2, 10]?
The Papp at 100 µM was 155 nm/s.

And the Papp at 100 µM [2, 11]?
Its Papp at 100 µM is 103 nm/s.

With CN1C(=O)CN=C(c2ccccc2)c2cc(Cl)ccc21 [Diazepam, diazepam] as the molecule, how does the PEall (PBMEC/C1-2 cell layers; pig) read?
Its PEall is 11.10±1.33 µm/min.

What about the Serum binding ([3]; Serum concentration 50%) of the same molecule?
Its Serum binding is 19.52±0.13%.

And the Serum binding ([3]; Serum concentration 100%)?
Its Serum binding is 22.52±0.06%.

And the Serum binding ([3]; Serum concentration […] (C6 medium))?
Its Serum binding is 8.17±0.49%.

Which Papp at 100 µM ([1]; human) does the source give for O=C(O)Cc1ccccc1Nc1c(Cl)cccc1Cl [Diclofenac, diclofenac] here?
The Papp at 100 µM was 94.5 nm/s.

And the Papp at 100 µM ([1]; pig)?
The Papp at 100 µM was 177 nm/s.

What about the Papp at 100 µM ([1]; rat) of the same molecule?
Its Papp at 100 µM is 446 nm/s.

And the PSblank (ECV304 cell layers; 100 µM)?
The PSblank was 4.08 ± 0.41 µL/min.

What about the PEall (ECV304 cell layers; human, 100 µM) of the same molecule?
The PEall was 3.58±0.18 µm/min.

And the PSall (ECV304 cell layers; human, 100 µM)?
The PSall was 1.50 ± 0.08 µL/min.

What about the PScell (ECV304 cell layers; human, 100 µM) of the same molecule?
The PScell was 2.38 ± 0.19 µL/min.

What about the PSblank (PBMEC/C1-2 cell layers; 100 µM) of the same molecule?
Its PSblank is 5.83 ± 0.26 µL/min.

What about the PEall (PBMEC/C1-2 cell layers; pig, 100 µM) of the same molecule?
Its PEall is 6.00±0.38 µm/min.

What about the PSall (PBMEC/C1-2 cell layers; pig, 100 µM) of the same molecule?
The PSall was 2.52 ± 0.16 µL/min.

What about the PScell (PBMEC/C1-2 cell layers; pig, 100 µM) of the same molecule?
Its PScell is 4.44 ± 0.48 µL/min.

What about the PSblank ([4]; 100 µM) of the same molecule?
The PSblank was 1.65 ± 0.13 µL/min.

What about the PEall ([4]; rat, 100 µM) of the same molecule?
Its PEall is 10.84±0.51 µm/min.

What about the PSall ([4]; rat, 100 µM) of the same molecule?
The PSall was 0.96 ± 0.05 µL/min.

What about the PScell ([4]; rat, 100 µM) of the same molecule?
The PScell was 2.39 ± 0.27 µL/min.

With CC(C)Cc1ccc(C(C)C(=O)O)cc1 (centres unmarked) [Ibuprofen, ibuprofen] as the molecule, how does the Papp at 100 µM ([1]; pig) read?
Its Papp at 100 µM is 282 nm/s.

What about the Papp at 100 µM ([1]; rat) of the same molecule?
Its Papp at 100 µM is 533 nm/s.

What about the PEall (ECV304 cell layers; human, 100 µM) of the same molecule?
Its PEall is 4.82±0.05 µm/min.

What about the PSblank (PBMEC/C1-2 cell layers) of the same molecule?
Its PSblank is 6.72 ± 0.12 µL/min.

What about the PScell (PBMEC/C1-2 cell layers; PBMEC/C1-2, Ibuprofen study, cell layer only) of the same molecule?
The PScell was 7.10 ± 0.65 µL/min.

What about the PSall (PBMEC/C1-2 cell layers; PBMEC/C1-2, Ibuprofen study, insert and cell layer) of the same molecule?
The PSall was 3.45 ± 0.15 µL/min.

And the PSblank [4]?
Its PSblank is 1.71 ± 0.15 µL/min.

And the PSall ([4]; rat)?
Its PSall is 1.07 ± 0.06 µL/min.

And the PScell ([4]; rat)?
Its PScell is 2.86 ± 0.39 µL/min.

What about the Papp at 100 µM [2] of the same molecule?
Its Papp at 100 µM is 163 nm/s.

Which results are given for CN1C(C(=O)Nc2ccccn2)=C(O)c2ccccc2S1(=O)=O [Piroxicam, piroxicam]?
Papp at 100 µM ([1]; human): 204 nm/s; Papp at 100 µM ([1]; pig): 397 nm/s; Papp at 100 µM [1, 5]: 700 nm/s; Papp at 100 µM ([1]; pig, PEcell, PBMEC/C1-2 group study, glioma conditioned medium, without celecoxib): 498 nm/s; Papp at 100 µM ([1]; pig, PEcell, PBMEC/C1-2 group study, without Celecoxib): 421 nm/s; Papp at 100 µM [1, 6]: 642 nm/s; Papp at 100 µM [1, 7]: 668 nm/s; Papp at 100 µM ([1]; rat): 523 nm/s; PSblank (ECV304 cell layers; 100 µM): 8.53 ± 0.36 µL/min; PEall (ECV304 cell layers; ECV304, Piroxicam study, insert and cell layer): 7.65±0.18 µm/min; PSall (ECV304 cell layers; human, 100 µM): 3.21 ± 0.07 µL/min; PScell (ECV304 cell layers; human, 240 min, 100 µM): 5.15 ± 0.19 µL/min; PSblank (PBMEC/C1-2 cell layers; 100 µM): 8.69 ± 0.72 µL/min; PEall (PBMEC/C1-2 cell layers; PBMEC/C1-2, Piroxicam study, insert and cell layer): 11.02±0.87 µm/min; PEcell (PBMEC/C1-2 cell layers; serum-free medium, without celecoxib): 24.96±2.08 µm/min; PEcell (PBMEC/C1-2 cell layers; with Probenecid, without Meloxicam): 30.26±5.85 µm/min; PEcell (PBMEC/C1-2 cell layers; without CF (and without celecoxib)): 30.27±2.61 µm/min; PSall (PBMEC/C1-2 cell layers; pig, 240 min, 100 µM): 4.63 ± 0.36 µL/min; PScell (PBMEC/C1-2 cell layers; pig, 240 min, 100 µM): 9.91 ± 1.60 µL/min; PSblank ([4]; 100 µM): 1.94 ± 0.12 µL/min; PEall ([4]; RBMEC group study, insert and cell layer): 12.76±0.33 µm/min; PSall ([4]; rat, 100 µM): 1.15 ± 0.03 µL/min; PScell ([4]; rat, 100 µM): 2.82 ± 0.17 µL/min; Papp at 100 µM [2, 8]: 214 nm/s; Papp at 100 µM ([2]; ECV304 group study, glioma conditioned medium, without celecoxib): 308 nm/s; Papp at 100 µM ([2]; ECV304 group study, serum-free medium, without celecoxib): 378 nm/s; Papp at 100 µM ([2]; ECV304 group study, without CF (and without celecoxib)): 303 nm/s; Papp at 100 µM ([2]; ECV304 group study, without Celecoxib): 286 nm/s; Papp at 100 µM [2, 9]: 459 nm/s; Papp at 100 µM [2, 10]: 295 nm/s; Papp at 100 µM [2, 11]: 266 nm/s

With CN1C(C(=O)Nc2ccccn2)=C(O)c2sccc2S1(=O)=O [Tenoxicam, tenoxicam] as the molecule, how does the Papp at 100 µM ([1]; human) read?
The Papp at 100 µM was 123 nm/s.

What about the Papp at 100 µM ([1]; pig) of the same molecule?
The Papp at 100 µM was 367 nm/s.

What about the Papp at 100 µM ([1]; pig, PEcell) of the same molecule?
The Papp at 100 µM was 385 nm/s.

What about the Papp at 100 µM ([1]; rat) of the same molecule?
Its Papp at 100 µM is 219 nm/s.

What about the PSblank (ECV304 cell layers; 100 µM) of the same molecule?
Its PSblank is 7.12 ± 0.50 µL/min.

And the PEall (ECV304 cell layers; human, 100 µM)?
Its PEall is 5.15±0.05 µm/min.

What about the PSall (ECV304 cell layers; human, 100 µM) of the same molecule?
The PSall was 2.16 ± 0.02 µL/min.

What about the PScell (ECV304 cell layers; human, 100 µM) of the same molecule?
The PScell was 3.11 ± 0.04 µL/min.

What about the PSblank (PBMEC/C1-2 cell layers; 100 µM) of the same molecule?
The PSblank was 7.47 ± 0.31 µL/min.

And the PEall (PBMEC/C1-2 cell layers; pig, 100 µM)?
Its PEall is 9.84±0.16 µm/min.

And the PSall (PBMEC/C1-2 cell layers; pig, 100 µM)?
The PSall was 4.13 ± 0.07 µL/min.

What about the PScell (PBMEC/C1-2 cell layers; pig, 100 µM) of the same molecule?
The PScell was 9.25 ± 0.33 µL/min.

And the PSblank ([4]; 100 µM)?
The PSblank was 1.74 ± 0.10 µL/min.

What about the PEall ([4]; rat, 100 µM) of the same molecule?
Its PEall is 7.82±0.21 µm/min.

What about the PSall ([4]; rat, 100 µM) of the same molecule?
Its PSall is 0.70 ± 0.02 µL/min.

And the PScell ([4]; rat, 100 µM)?
The PScell was 1.18 ± 0.05 µL/min.

For carboxyfluorescein [CF], which “Permeability coefficients (PEcell), range of averages over the single studies” value (PBMEC/C1-2 cell layers) is on record?
Its value is 16.67-19.66 µm/min.
